# Measurements published in PMC9474474, “Determination of pharmacokinetics and tissue distribution of a novel lutetium-labeled PSMA-targeted ligand, ^177Lu-DOTA-PSMA-GUL, in rats by using LC–MS/MS” (Scientific Reports, 2022).
# What was measured:
# Format in all cases: in vivo, Male Sprague–Dawley rats
# [1] = Pharmacokinetics after i.v. bolus injection in rats (non-compartmental analysis, dose proportionality)
# Protocol: (§1) Freshly prepared ^175Lu-DOTA-PSMA-GUL solution (2.1 mg/mL) was administered by i.v. bolus injection via the penile vein (n = 5–7) at three doses of 1, 2, and 5 mg/kg. Approximately 0.3 mL of the jugular venous blood samples were collected at predetermined times after i.v. injection. Plasma samples were harvested by centrifugation of the blood samples at 3220 × g for 10 min. Urine and feces samples were collected at 4, 8, 12, and 24 h after i.v. injection. All samples were stored at -70 °C until analysis.
# (§2) The plasma concentration–time data were analyzed by non-compartmental method using Phoenix® WinNonlin® (Pharsight, NC, USA). The fraction of ^175Lu-DOTA-PSMA-GUL excreted into urine (Furine) and feces (Ffeces) were calculated by the ratio of the total amount of drug excreted in the urine and feces to the fraction of the dose, respectively. The tissue-to-plasma partition coefficients (KP) were calculated as the tissue-to-plasma concentration ratios.
# Dose proportionality was tested for Cmax, AUCall, and AUCinf based on power model. Assuming the natural logarithm of the pharmacokinetic parameter is linearly related to the natural logarithm of dose as in the following equation: ln(PK parameter) = β0 + β1 × ln(dose), the slope coefficient (β1) and its two-sided 95% confidence intervals (CI) were estimated.
# [2] = Excretion into urine and feces for 24 h after i.v. injection in rats
# Protocol: as §1, §2
# [3] = Tissue distribution at steady state after i.v. bolus loading dose plus i.v. infusion in rats; settings: for plasma concentration at steady state: from 1.5 h of i.v. infusion
# Protocol: Tissue distribution of ^175Lu-DOTA-PSMA-GUL was examined under two different steady-state conditions after i.v. infusion of ^175Lu-DOTA-PSMA-GUL. Two target steady-state plasma concentrations (Css) were set as 3000 and 6000 ng/mL. Rats were surgically cannulated with polyethylene tubing (0.58 mm i.d. and 0.96 mm o.d.; Natume, Tokyo, Japan) in the left jugular vein for blood sampling and femoral vein for i.v. injection and infusion. After one day of recovery, ^175Lu-DOTA-PSMA-GUL was administered by i.v. injection as a loading dose (LD) and i.v. infusion for 3 h to achieve the target Css. The i.v. bolus LD and i.v. infusion rates (K0) were calculated by LD = Css,target·Vss and K0 = Css,target·CL, respectively. […] The calculated LD was 0.60 mg/kg and 1.20 mg/kg for the target Css of 3,000 ng/mL and 6,000 ng/mL, respectively. The calculated K0 was 1.82 mg/h/kg and 3.65 mg/h/kg for the target Css of 3,000 ng/mL and 6,000 ng/mL, respectively.
# Blood samples were collected at 1.5, 2, 2.5, and 3 h during i.v. infusion, and centrifuged at 3,200 × g for 10 min. At the end of the infusion, rats were sacrificed, and brain, lung, heart, spleen, small intestine, stomach, kidney, liver, prostate, fat, muscle, and testis were excised and immediately homogenized in normal saline. All samples were stored at -70 °C until analysis.
# as §2
# [4] = i.v. injection, average over doses
# [5] = steady state, average of both infusion levels
structure (smiles),measurement,setting,value
"O=C([O-])CN1CCN(CC(=O)[O-])CCN(CC(=O)[O-])C(Cc2ccc(NC(=S)NCCCC[C@H](NC(=O)N[C@@H](CCC(=O)O)C(=O)O)C(=O)O)cc2)CN(CC(=O)[O-])CC1.[Lu+3] (stereo partly shown) [^175Lu-DOTA-PSMA-GUL, Lutetium labeled-1,4,7,10-tetraazacyclododecane-1,4,7,10-tetraacetic acid (DOTA)-PSMA-GUL]",detection in the plasma,[1]; after 4 h of i.v. injection,not detected
same,clearance (CL),[1]; from the i.v. injection study,10.126 mL/min/kg
same,AUCall,[1]; i.v. injection 1 mg/kg,1841.19 ± 266.36 ng·h/mL
same,AUCinf,[1]; i.v. injection 1 mg/kg,1857.48 ± 270.08 ng·h/mL
same,C0,[1]; i.v. injection 1 mg/kg,9267.42 ± 2673.59 ng/mL
same,CL,[1]; i.v. injection 1 mg/kg,9.13 ± 1.30 mL/min/kg
same,MRT,[1]; i.v. injection 1 mg/kg,20.4 ± 1.2 min
same,VSS,[1]; i.v. injection 1 mg/kg,0.19 ± 0.03 L/kg
same,Vz,[1]; i.v. injection 1 mg/kg,0.25 ± 0.03 L/kg
same,t1/2,[1]; i.v. injection 1 mg/kg,19.2 ± 1.2 min
same,AUCall,[1]; i.v. injection 2 mg/kg,3029.00 ± 350.80 ng·h/mL
same,AUCinf,[1]; i.v. injection 2 mg/kg,3047.45 ± 346.00 ng·h/mL
same,C0,[1]; i.v. injection 2 mg/kg,"14,960.22 ± 3104.40 ng/mL"
same,CL,[1]; i.v. injection 2 mg/kg,11.04 ± 1.15 mL/min/kg
same,MRT,[1]; i.v. injection 2 mg/kg,19.2 ± 1.8 min
same,VSS,[1]; i.v. injection 2 mg/kg,0.21 ± 0.04 L/kg
same,Vz,[1]; i.v. injection 2 mg/kg,0.29 ± 0.05 L/kg
same,t1/2,[1]; i.v. injection 2 mg/kg,18 ± 1.8 min
same,AUCall,[1]; i.v. injection 5 mg/kg,8038.10 ± 1055.28 ng·h/mL
same,AUCinf,[1]; i.v. injection 5 mg/kg,8076.44 ± 1063.99 ng·h/mL
same,C0,[1]; i.v. injection 5 mg/kg,"46,720.92 ± 13,829.91 ng/mL"
same,CL,[1]; i.v. injection 5 mg/kg,10.46 ± 1.30 mL/min/kg
same,MRT,[1]; i.v. injection 5 mg/kg,19.2 ± 1.2 min
same,VSS,[1]; i.v. injection 5 mg/kg,0.20 ± 0.03 L/kg
same,Vz,[1]; i.v. injection 5 mg/kg,0.30 ± 0.09 L/kg
same,t1/2,[1]; i.v. injection 5 mg/kg,19.8 ± 5.4 min
same,average CL,[1]; [4],10.13 mL/min/kg
same,average volume of distribution (Vss),[1]; [4],0.20 L/kg
same,Ffeces (fraction excreted into feces),[2]; i.v. injection 1 mg/kg,5.46 ± 4.11%
same,Furine (fraction excreted into urine),[2]; i.v. injection 1 mg/kg,58.71 ± 21.26%
same,Ffeces (fraction excreted into feces),[2]; i.v. injection 2 mg/kg,1.08 ± 0.76%
same,Furine (fraction excreted into urine),[2]; i.v. injection 2 mg/kg,54.59 ± 25.98%
same,Ffeces (fraction excreted into feces),[2]; i.v. injection 5 mg/kg,6.41 ± 3.68%
same,Furine (fraction excreted into urine),[2]; i.v. injection 5 mg/kg,59.89 ± 22.82%
same,"Concentration, brain","[3]; CSS,target = 3000 ng/mL",BLOQ
same,"Concentration, fat","[3]; CSS,target = 3000 ng/mL",320.68 ± 55.09 ng/g
same,"Concentration, heart","[3]; CSS,target = 3000 ng/mL",645.67 ± 204.29 ng/g
same,"Concentration, kidney","[3]; CSS,target = 3000 ng/mL",7253.09 ± 665.80 ng/g
same,"Concentration, liver","[3]; CSS,target = 3000 ng/mL",949.81 ± 342.61 ng/g
same,"Concentration, lung","[3]; CSS,target = 3000 ng/mL",962.76 ± 287.82 ng/g
same,"Concentration, muscle","[3]; CSS,target = 3000 ng/mL",342.27 ± 188.70 ng/g
same,"Concentration, prostate","[3]; CSS,target = 3000 ng/mL",2433.69 ± 2292.84 ng/g
same,"Concentration, small intestine","[3]; CSS,target = 3000 ng/mL",741.67 ± 507.55 ng/g
same,"Concentration, spleen","[3]; CSS,target = 3000 ng/mL",541.13 ± 52.33 ng/g
same,"Concentration, stomach","[3]; CSS,target = 3000 ng/mL",276.46 ± 95.71 ng/g
same,"Concentration, testis","[3]; CSS,target = 3000 ng/mL",504.17 ± 122.39 ng/g
same,"Tissue to plasma coefficient (KP), fat","[3]; CSS,target = 3000 ng/mL",0.11 ± 0.02
same,"Tissue to plasma coefficient (KP), heart","[3]; CSS,target = 3000 ng/mL",0.23 ± 0.07
same,"Tissue to plasma coefficient (KP), kidney","[3]; CSS,target = 3000 ng/mL",2.56 ± 0.29
same,"Tissue to plasma coefficient (KP), liver","[3]; CSS,target = 3000 ng/mL",0.33 ± 0.11
same,"Tissue to plasma coefficient (KP), lung","[3]; CSS,target = 3000 ng/mL",0.34 ± 0.10
same,"Tissue to plasma coefficient (KP), muscle","[3]; CSS,target = 3000 ng/mL",0.12 ± 0.07
same,"Tissue to plasma coefficient (KP), prostate","[3]; CSS,target = 3000 ng/mL",0.86 ± 0.82
same,"Tissue to plasma coefficient (KP), small intestine","[3]; CSS,target = 3000 ng/mL",0.26 ± 0.18
same,"Tissue to plasma coefficient (KP), spleen","[3]; CSS,target = 3000 ng/mL",0.19 ± 0.02
same,"Tissue to plasma coefficient (KP), stomach","[3]; CSS,target = 3000 ng/mL",0.10 ± 0.04
same,"Tissue to plasma coefficient (KP), testis","[3]; CSS,target = 3000 ng/mL",0.18 ± 0.04
same,"Concentration, plasma","[3]; CSS,target = 3000 ng/mL, LD 0.60 mg/kg, infusion 1.82 mg/h/kg",2845.62 ± 111.43 ng/mL
same,"Concentration, brain","[3]; CSS,target = 6000 ng/mL",BLOQ
same,"Concentration, fat","[3]; CSS,target = 6000 ng/mL",406.59 ± 77.17 ng/g
same,"Concentration, heart","[3]; CSS,target = 6000 ng/mL",737.57 ± 453.10 ng/g
same,"Concentration, kidney","[3]; CSS,target = 6000 ng/mL","14,455.60 ± 1272.17 ng/g"
same,"Concentration, liver","[3]; CSS,target = 6000 ng/mL",1881.97 ± 267.48 ng/g
same,"Concentration, lung","[3]; CSS,target = 6000 ng/mL",1480.52 ± 464.64 ng/g
same,"Concentration, muscle","[3]; CSS,target = 6000 ng/mL",621.78 ± 419.81 ng/g
same,"Concentration, prostate","[3]; CSS,target = 6000 ng/mL",8550.82 ± 7322.84 ng/g
same,"Concentration, small intestine","[3]; CSS,target = 6000 ng/mL",1636.21 ± 1273.92 ng/g
same,"Concentration, spleen","[3]; CSS,target = 6000 ng/mL",932.03 ± 368.50 ng/g
same,"Concentration, stomach","[3]; CSS,target = 6000 ng/mL",612.39 ± 161.18 ng/g
same,"Concentration, testis","[3]; CSS,target = 6000 ng/mL",877.83 ± 252.52 ng/g
same,"Tissue to plasma coefficient (KP), fat","[3]; CSS,target = 6000 ng/mL",0.07 ± 0.02
same,"Tissue to plasma coefficient (KP), heart","[3]; CSS,target = 6000 ng/mL",0.13 ± 0.08
same,"Tissue to plasma coefficient (KP), kidney","[3]; CSS,target = 6000 ng/mL",2.61 ± 0.47
same,"Tissue to plasma coefficient (KP), liver","[3]; CSS,target = 6000 ng/mL",0.34 ± 0.05
same,"Tissue to plasma coefficient (KP), lung","[3]; CSS,target = 6000 ng/mL",0.26 ± 0.09
same,"Tissue to plasma coefficient (KP), muscle","[3]; CSS,target = 6000 ng/mL",0.11 ± 0.07
same,"Tissue to plasma coefficient (KP), prostate","[3]; CSS,target = 6000 ng/mL",1.54 ± 1.33
same,"Tissue to plasma coefficient (KP), small intestine","[3]; CSS,target = 6000 ng/mL",0.29 ± 0.23
same,"Tissue to plasma coefficient (KP), spleen","[3]; CSS,target = 6000 ng/mL",0.17 ± 0.08
same,"Tissue to plasma coefficient (KP), stomach","[3]; CSS,target = 6000 ng/mL",0.11 ± 0.04
same,"Tissue to plasma coefficient (KP), testis","[3]; CSS,target = 6000 ng/mL",0.15 ± 0.04
same,"Concentration, plasma","[3]; CSS,target = 6000 ng/mL, LD 1.20 mg/kg, infusion 3.65 mg/h/kg",5713.2 ± 523.23 ng/mL
same,plasma concentration at steady state,"[3]; LD 0.60 mg/kg, infusion rate 1.82 mg/h/kg","approximately 3,000 ng/mL"
same,plasma concentration at steady state,"[3]; LD 1.20 mg/kg, infusion rate 3.65 mg/h/kg","~6,000 ng/mL"
same,detection in the brain,[3]; steady state after i.v. infusion,not detected
same,"average KP, kidneys",[3]; [5],2.58
same,"average KP, prostate",[3]; [5],1.20
same,"average KP, other tissues","[3]; steady state, tissues other than kidneys and prostate",less than 0.34
